In patent US7109197B2, “N-phenyl-4-(4-pyridyl)-2-pyrimidineamine derivatives” (Syngenta Crop Protection, Inc., priority 2000, dated 2006):

Key:
Pyricularia oryzae = type: in vivo; details: Pyricularia oryzae on rice cv. Sasanishiki; 0.02% active substance, spray
Venturia inaegualis = assay: Assay B-5: Residual protective activity against Venturia inaegualis on apples (scab on apple); type: in vivo; details: Venturia inaegualis on apple seedlings cv. McIntosh; 0.02% active substance, spray
Protocol: Assay B-5: Residual Protective Activity Against Venturia inaegualis on Apples (Scab on Apple) 4 week old apple seedlings cv. McIntosh are treated with the formulated testcompound (0.02% active substance) in a spray chamber. One day after application apple plants are inoculated by spraying a spore suspension (4×10^5 conidia/ml) on the test plants. After an incubation period of 4 days at 21° C. and 95% r. h. the plants are placed for 4 days at 21° C. and 60% r. h. in a greenhouse. After another 4 day incubation period at 21° C. and 95% r. h. the disease incidence is assessed.

Botrytis cinerea [1] = assay: Assay B-8: Effect against Botrytis cinerea/tomato (Botrytis on tomatoes); type: in vivo; details: Botrytis cinerea on tomato cv. Roter Gnom; 0.02% active substance, spray
Protocol: Assay B-8: Effect Against Botrytis cinerea/Tomato (Botrytis on Tomatoes) 4 week old tomato plants cv. Roter Gnom are treated with the formulated testcompound 0.02% active substance) in a spray chamber. Two days after application tomato plants are inoculated by spraying a spore suspension (1×10^5 conidia/ml) on the test plants. After an incubation period of 4 days at 20° C. and 95% r. h. in a greenhouse the disease incidence is assessed.

[2] = test system: Pyrenophora teres (Helminthosporium); assay: Assay B-10: Effect against Pyrenophora teres (Helminthosporium)/barley (net blotch on barley); type: in vivo; details: Pyrenophora teres on barley cv. Regina, 0.02% active substance, spray; for pest or weed control at 0.02 % strength: 96 h, read-out: B10 activity
Protocol: Assay B-10: Effect Against Pyrenophora teres (Helminthosporium)/Barley (Net Blotch on Barley) 1 week old barley plants cv. Regina are treated with a formulated testcompound (0.02% active substance) in a spray chamber. Two days after application barley plants are inoculated by spraying a spore suspension (3×10^4 conidia/ml) on the test plants. After an incubation period of 2 days at 20° C. and 95% r.h. plants are kept for 2 days at 20° C. and 60% r.h. in a greenhouse. The disease incidence is assessed 4 days after inoculation.

Botrytis cinerea [3] = assay: Assay B-7: Botrytis cinerea/grape (Botrytis on grapes); type: in vivo; details: Botrytis cinerea on grape seedlings cv. Gutedel; 0.02% active substance, spray
Protocol: Assay B-7: Botrytis cinerea/Grape (Botrytis on Grapes) 5 week old grape seedlings cv. Gutedel are treated with the formulated testcompound (0.02% active substance) in a spray chamber. Two days after application grape plants are inoculated by spraying a spore suspension (1×10^6 conidia/ml) on the test plants. After an incubation period of 4 days at 21° C. and 95% r. h. in a greenhouse the disease incidence is assessed.

Erysiphe graminis = assay: Assay B-6: Effect against Erysiphe graminis on barley (powdery mildew); residual protective / systemic activity; type: in vivo; details: 0.02% active substance spray (residual) or 0.002% soil (systemic), variant not stated
Protocol: Assay B-6: Effect Against Erysiphe graminis on Barley (Powdery Mildew on Barley) a) Residual Protective Activity […] The infected plants are placed in a greenhouse at 22°. 12 days after infection, the fungal attack is evaluated. b) Systemic Activity […] […] 48 hours later, the plants are dusted with conidia of the fungus. The infected plants are placed in a greenhouse at 22° C. 12 days after infection, the disease incidence is evaluated.

Septoria nodorum = assay: Assay B-12: Effect against Septoria nodorum/wheat (Septoria leaf spot on wheat); type: in vivo; details: Septoria nodorum on wheat cv. Arina, 0.02% active substance, spray; for pest or weed control at 0.02 % strength: Parastagonospora nodorum, 264 h, read-out: B12 activity
Protocol: Assay B-12: Effect Against Septoria nodorum/Wheat (Septoria Leaf Spot on Wheat) 1 week old wheat plants cv. Arina are treated with a formulated test compound (0.02% active substance) in a spray chamber. One day after application wheat plants are inoculated by spraying a spore suspension (5×10^5 conidia/ml) on the test plants. After an incubation period of 1 day at 20° C. and 95% r.h. plants are kept for 10 days at 20° C. and 60% r.h. in a greenhouse. The disease incidence is assessed 11 days after inoculation.

Fusarium culmorum = type: in vivo; details: in vivo

SMILES | B9 activity (Pyricularia oryzae) | B5 activity (Venturia inaegualis) | B8 activity (Botrytis cinerea [1]) | B10 activity [2] | B7 activity (Botrytis cinerea [3]) | B6 activity (Erysiphe graminis) | B12 activity (Septoria nodorum) | melting point [°C] | pest or weed control at 0.02 % strength [2] [%] | pest or weed control at 0.02 % strength (Septoria nodorum) [%] | B11 activity (Fusarium culmorum)
COC(OC)C(C)Nc1cc(-c2ccnc(Nc3cccc(Cl)c3)n2)ccn1 (centres unmarked) [Compound 65] | + (the activity observed in the corresponding test system is 70% or more) | + (the activity observed in the corresponding test system is 70% or more) | + (the activity observed in the corresponding test system is 70% or more) | + (the activity observed in the corresponding test system is 70% or more) | + (the activity observed in the corresponding test system is 70% or more) | + (the activity observed in the corresponding test system is 70% or more) | + (the activity observed in the corresponding test system is 70% or more) | – | – | – | –
O=C(Nc1cc(-c2ccnc(Nc3cccc(Cl)c3)n2)ccn1)C(F)(F)F [Compound 63] | + (the activity observed in the corresponding test system is 70% or more) | + (the activity observed in the corresponding test system is 70% or more) | + (the activity observed in the corresponding test system is 70% or more) | – | + (the activity observed in the corresponding test system is 70% or more) | – | – | 180 to 181 | > 70 | > 70 | –
Nc1cc(-c2ccnc(Nc3cccc(Cl)c3)n2)ccn1 [Compound 58] | + (the activity observed in the corresponding test system is 70% or more) | + (the activity observed in the corresponding test system is 70% or more) | + (the activity observed in the corresponding test system is 70% or more) | – | + (the activity observed in the corresponding test system is 70% or more) | + (the activity observed in the corresponding test system is 70% or more) | – | 214 to 215 | > 70 | > 70 | –
OCCNc1cc(-c2ccnc(Nc3cccc(Cl)c3)n2)ccn1 [Compound 37] | + (the activity observed in the corresponding test system is 70% or more) | + (the activity observed in the corresponding test system is 70% or more) | + (the activity observed in the corresponding test system is 70% or more) | + (the activity observed in the corresponding test system is 70% or more) | + (the activity observed in the corresponding test system is 70% or more) | + (the activity observed in the corresponding test system is 70% or more) | + (the activity observed in the corresponding test system is 70% or more) | – | – | – | –
CN(C)c1cc(-c2ccnc(Nc3cccc(Cl)c3)n2)ccn1 [Compound 59] | – | – | – | – | – | + (the activity observed in the corresponding test system is 70% or more) | – | 178 to 179 | > 70 | > 70 | –
Clc1cccc(Nc2nccc(-c3ccnc(NCCCN4CCOCC4)c3)n2)c1 [Compound 8] | – | – | + (the activity observed in the corresponding test system is 70% or more) | – | – | + (the activity observed in the corresponding test system is 70% or more) | – | – | – | – | –
COCC(C)Nc1cc(-c2ccnc(Nc3cccc(Cl)c3)n2)cc(F)n1 (centres unmarked) [Compound 7] | – | + (the activity observed in the corresponding test system is 70% or more) | – | + (the activity observed in the corresponding test system is 70% or more) | – | + (the activity observed in the corresponding test system is 70% or more) | – | – | – | – | –
COCCNc1cc(-c2ccnc(Nc3cccc(Cl)c3)n2)ccn1 [Compound 34] | – | – | + (the activity observed in the corresponding test system is 70% or more) | + (the activity observed in the corresponding test system is 70% or more) | + (the activity observed in the corresponding test system is 70% or more) | – | + (the activity observed in the corresponding test system is 70% or more) | – | – | – | + (key: +: the activity observed in the corresponding test system is 70% or more)
Clc1cccc(Nc2nccc(-c3ccnc(NC4CCOCC4)c3)n2)c1 [Compound 83] | – | – | + (the activity observed in the corresponding test system is 70% or more) | + (the activity observed in the corresponding test system is 70% or more) | – | – | + (the activity observed in the corresponding test system is 70% or more) | – | – | – | + (key: +: the activity observed in the corresponding test system is 70% or more)
Clc1cccc(Nc2nccc(-c3ccnc(NCCCn4ccnc4)c3)n2)c1 [Compound 43] | + (the activity observed in the corresponding test system is 70% or more) | – | + (the activity observed in the corresponding test system is 70% or more) | + (the activity observed in the corresponding test system is 70% or more) | + (the activity observed in the corresponding test system is 70% or more) | – | + (the activity observed in the corresponding test system is 70% or more) | – | – | – | –
FC(F)(F)CNc1cc(-c2ccnc(Nc3cccc(Cl)c3)n2)ccn1 [Compound 103] | – | – | – | – | – | + (the activity observed in the corresponding test system is 70% or more) | – | 222 to 223 | > 70 | > 70 | –
COCC(C)Nc1cc(-c2ccnc(Nc3cccc(OC(F)(F)C(F)F)c3)n2)ccn1 (centres unmarked) [Compound 5] | – | – | – | + (the activity observed in the corresponding test system is 70% or more) | – | – | + (the activity observed in the corresponding test system is 70% or more) | – | – | – | + (key: +: the activity observed in the corresponding test system is 70% or more)
CC(C)=CCNc1cc(-c2ccnc(Nc3cccc(Cl)c3)n2)ccn1 [Compound 81] | – | – | + (the activity observed in the corresponding test system is 70% or more) | + (the activity observed in the corresponding test system is 70% or more) | – | + (the activity observed in the corresponding test system is 70% or more) | + (the activity observed in the corresponding test system is 70% or more) | – | – | – | –
Clc1cccc(Nc2nccc(-c3ccnc(NCCN4CCOCC4)c3)n2)c1 [Compound 20] | – | – | + (the activity observed in the corresponding test system is 70% or more) | + (the activity observed in the corresponding test system is 70% or more) | – | + (the activity observed in the corresponding test system is 70% or more) | + (the activity observed in the corresponding test system is 70% or more) | – | – | – | –
CC(=O)OCC(C)Nc1cc(-c2ccnc(Nc3cccc(Cl)c3)n2)ccn1 (centres unmarked) [Compound 50] | + (the activity observed in the corresponding test system is 70% or more) | + (the activity observed in the corresponding test system is 70% or more) | + (the activity observed in the corresponding test system is 70% or more) | + (the activity observed in the corresponding test system is 70% or more) | + (the activity observed in the corresponding test system is 70% or more) | + (the activity observed in the corresponding test system is 70% or more) | + (the activity observed in the corresponding test system is 70% or more) | – | – | – | –
